The source of these data is US10774047B2 (THE TRUSTEES OF THE UNIVERSITY OF PENNSYLVANIA, priority 2015, dated 2020).

In one data set the test system is 451Lu (melanoma) cells. Briefly: Bafilomycin clamp experiment (autophagic flux). In kind it is cell-based. Particulars: 3 μM, with or without bafilomycin-A1, 24 hours.
In data set [1] the test system is ATG5 WT and ATG5-null MEFs. Briefly: Long-term colony formation in ATG5+/+ and ATG5-/- MEFs. Particulars: 2 weeks, 10-300 nM. In kind it is cell-based.
Procedure: (G) Long-term colony formation assays were performed with ATG5+/+ and ATG5−/− MEFs treated with DQ661 (2 weeks, 10-300 nM). Cells were subsequently stained with crystal violet and imaged.
The clonogenic assay was performed as previously described. Briefly, cells were suspended in appropriate culture media, and plated in 6-well plates (2×10^3 cells/well). Medium was changed and drug treatment refreshed every 3-4 days for 2 weeks. Cells were subsequently stained with crystal violet and quantified.
Another data set concerns A375P cells. Briefly: Galectin-3 punctae assay (lysosomal membrane permeabilization). In kind it is cell-based. The following applies: 6 hours (LLOMe 3 hr, 2 mM). As to the method: FIG. 3: Central nitrogen methylation status dictates DNA damage versus lysosomal membrane permeability. […] Cells were imaged with fluorescent microscopy, phospho-H2AX+ cells were scored using ImageJ software analysis and quantified to the right. (B) A375P cells were treated identical to the conditions in (A), with the addition of the positive control LLoMe (3 hr, 2 mM). Cells were subsequently stained with galectin-3 and imaged with fluorescent microscopy. The formation of galectin-3 punctae, which signify lysosomal membrane permeabilization, are pointed out with yellow arrows.
When lysosomes are healthy, galectin-3 is uniformly dispersed throughout the cell. However, when the lysosome is damaged, galectin-3 rapidly localizes to the site of damaged lysosomes, appearing as punctae and marking individual leaky lysosomes.

In data set [2] the test system is 1205Lu melanoma xenografts. Put plainly: 1205Lu melanoma xenograft model. The data set is classed as in vivo, NSG mice. As to the method:
(§1) FIG. 5: DQ661 has significant single-agent in vivo activity in melanoma xenograft model. […]. Mice were randomly split into 4 arms and treated with vehicle control (water, i.p.), quinacrine (8 mg/kg, i.p.), DQ660 (8 mg/kg, i.p.) or DQ661 (8 mg/kg, i.p.). Treatments were given as shown by the black arrows, following a regimen of 2 days on treatment followed by 2 days off treatment. (C) Representative electron micrographs from melanoma xenograft tumors harvested after 2 days of treatment according to (B). (D) Average tumor volumes for each treatment arm are shown. Each point represents the mean of N=8 mice per treatment arm and the error bars represent standard error (s.e.) (C) Representative EM for tumors treated in each arm. (E) A schematic for how mice were treated in (F). […]. Mice were randomly split into 3 arms and treated with water (i.p.), DQ661 (2 mg/kg, i.p.) or DQ661 (4 mg/kg, i.p.). Treatments were give as shown by the black arrows, following a regimen of 2 days on treatment followed by 2 days […]. Tumor volume is shown. Each point represents the mean of N=8 mice per treatment arm and the error bars represent s.e. (G) Average tumor growth rate for each treatment arm are shown. (H) Protein lysate was harvested from mouse tumors at the end of the experiment and immunoblotted for LC3B, phospho-4E-BP1 T37_T65, phospho-4E-BP1 S240_S244 and Actin. Quantification of proteins standardized to control mice levels are shown to the right.
(§2) Five to seven-week old NOD-scid gamma (NSG) mice (Jackson Laboratory) were used for xenograft studies with the 1205Lu melanoma cell line. Tumor generation, tumor measurement and tumor harvesting performed as previously described (ref). For the pancreatic cancer model, five to seven-week old C57BL/6 mice (Jackson Laboratory) and maintained under pathogen-free conditions. 2×10^6 G43 cells were subcutaneously injected with an equal volume of matrigel (BD) over the right flank […] and tumors became palpable after 5-6 days. Mice were enrolled on day 6 and given Gemcitabine (120 mg/kg, i.p.). DQ661 (4 mg/kg, i.p.) was given on days 7, 8, 12, 13, 17 and 18. Perpendicular tumor diameters were measured sing electronic calipers and volume was calculated leveraging the formula L×W^2×0.5, where L is the longest dimension and W is the perpendicular dimension. All animal experiments were performed in accordance to the protocols approved by the Institute of Animal Care and Use Committee of the University of Pennsylvania.
. After 1-2 weeks, tumors were palpable and mice were treated with vehicle control (water), quinacrine (8 mg/kg), DQ660 (8 mg/kg) or DQ661 (8 mg/kg) i.p (FIG. 5A). […]. Therefore another 1205Lu xenograft experiment was performed with mice treated with either vehicle control (water, n=6) or DQ661 (2 or 4 mg/kg, n=6) for a period of 14 days (FIG. 5e, 5F).

Data set [3] can be described thus: Tolerability in 1205Lu xenograft-bearing mice. The data set is classed as in vivo. As to the method: as §1, §2
. After 1-2 weeks, tumors were palpable and mice were treated with vehicle control (water), quinacrine (8 mg/kg), DQ660 (8 mg/kg) or DQ661 (8 mg/kg) i.p (FIG. 5A). […]. […]

For data set [4], the system named is G43 cells. Briefly: G43 KPC pancreatic cancer syngeneic model. In kind it is in vivo, C57BL/6 mice. The following applies: gemcitabine 120 mg/kg i.p. once; DQ661 4 mg/kg i.p. 2 days on 3 days off. As to the method:
FIG. 6: DQ661 potentiates in vivo activity of gemcitabine in KPC pancreatic cancer syngeneic model. (A) 4664 and G43 cells were treated with gemcitabine (72 hr, 3-30 nM). MTT was subsequently added and cell viability was determined by standardizing absorbance to control wells. (B) G43 cells were treated chronically for 2 weeks with gemcitabine (3-30 nM) in the presence or absence of DQ661 (30-300 nM) in colony formation assays. Cells were subsequently stained with crystal violet and imaged. (C) A schematic for how mice were treated in (D). G43 cells were injected into C57BL/6 mice (2×10^6 cells/mouse. Once palpable, mice were treated with vehicle (water, PBS), gemcitabine (120 mg/kg, i.p., once at day 6), DQ661 (4 mg/kg, i.p., starting on day 7 according to the regimen of 2 days on treatment followed by 3 days off treatment) or a combination of gemcitabine and DQ661. (D) Average tumor volumes for each treatment arm are shown. Each point represents the mean of N=8 mice per treatment arm and the error bars represent s.e. (E) Tumor growth rate from (D).
Five to seven-week old NOD-scid gamma (NSG) mice (Jackson Laboratory) were used for xenograft studies with the 1205Lu melanoma cell line. […] Perpendicular tumor diameters were measured sing electronic calipers and volume was calculated leveraging the formula L×W^2×0.5, where L is the longest dimension and W is the perpendicular dimension. […]

Data set [5] concerns mTORC1. Put plainly: mTOR / LAMP2 co-localization imaging. The following applies: A375P cells, 6 hours, 3 μM.
Data set [6] relates to mTORC1. Briefly: Immunoblot of mTORC1 signaling and LC3B, panel of lysosomal inhibitors. Particulars: A375P cells. (In general: A western blot detects proteins with antibodies after separation by electrophoresis.)
A further data set relates to autophagy. Particulars: background; cited from earlier work.
Data set [7] relates to G43 cells. Briefly: MTT viability of 4664 and G43 KPC pancreatic cancer cells. Particulars: 72 hr. In kind it is cell-based, mouse. As to the method: FIG. 6: DQ661 potentiates in vivo activity of gemcitabine in KPC pancreatic cancer syngeneic model. (A) 4664 and G43 cells were treated with gemcitabine (72 hr, 3-30 nM). MTT was subsequently added and cell viability was determined by standardizing absorbance to control wells. (B) G43 cells were treated chronically for 2 weeks with gemcitabine (3-30 nM) in the presence or absence of DQ661 (30-300 nM) in colony formation assays. Cells were subsequently stained with crystal violet and imaged. (C) A schematic for how mice were treated in (D). […]
For MTT assays, cells were plated in 96-well plates (2,000 cells/well), allowed to adhere overnight, and subsequently treated in triplicate for 72 hours. MTT reagent (Roche) was applied, cells were solubilized and absorbance was read at 570 nm, with background subtraction at 690 nm. […] Cells were subsequently stained with crystal violet and quantified. […]

Entries after “also recorded” stand apart in the source; their conditions may differ.

As for `COc1ccc2nc3cc(Cl)ccc3c(NCCCCCCN(C)CCCCCCNc3c4ccc(Cl)cc4nc4ccc(OC)cc34)c2c1` [DQ 661], the “effect on autophagic flux (LC3II/LC3I ratio with vs without bafilomycin-A1)” value with 451Lu (melanoma) cells is “autophagy inhibitors”. Moreover, the “cytotoxicity in ATG5 WT vs ATG5-null MEFs” value in data set [1] is “equal cytotoxicity in ATG5 WT and ATG5-null MEFs; also recorded: equivalent activity”. In addition, in the data set with A375P cells, the galectin-3 staining pattern result is given as “punctate distribution of galectin-3”. For the same molecule, in data set [2] (8 mg/kg i.p., 2 days on / 2 days off), the tumor growth result is on record as “inhibited tumor growth to the greatest extent”. For the same molecule, the “autophagy in tumors (electron microscopy)” value in [2] (8 mg/kg i.p., tumors harvested after 2 days of treatment) is reported as “inhibited autophagy as seen by electron microscopy of mouse tumors”. In addition, in data set [2] (2 or 4 mg/kg i.p., 14 days), the tumor growth rate entry is listed as “significantly slower rates of growth”; the “tumor volume and tumor weight” value was “significant reduction in tumor volume and tumor weight compared to control mice”. In addition, the “Western blotting of tumor lysate (LC3, p62, phospho-4EBP1, phospho-S6)” value in data set [2] (2 or 4 mg/kg i.p., end of experiment) was “concurrent in vivo autophagy inhibition and mTORC1 inhibition”. Further, in [3] (8 mg/kg i.p.), the “clinical outcome by day 7” value was “all mice were euthanized due to lethargy and bowel distension”; the “histological analysis of the intestines and liver” value is listed as “Paneth cell dysfunction”; the “weight loss of mice” value is reported as “greater than 10%”. Besides, in [3] (2 or 4 mg/kg i.p., 14 days), the mice weight result was “without significantly effect mice weight”. Besides, in the data set with G43 cells [4], the tumor growth entry is reported as “significantly impaired”. The “mTOR and lysosomal (LAMP2) co-localization” value in the data set with mTORC1 [5] is “loss of mTOR and lysosomal co-localization”. The “autophagy inhibition (accumulation of LC3II/LC3I levels) among lysosomal inhibitors” value with mTORC1 [6] (3 μM) is “greatest ability to inhibit autophagy among the entire panel of lysosomal inhibitors”. The “S6K (and 4E-BP1) phosphorylation” value with mTORC1 [6] (DQ661 3 μM, PET 10 μM, Bafilomycin A1 100 nM) was “inhibit S6K and 4E-BP1 to a similar degree as the classical control of amino acid starvation”. Moreover, the “mTORC1 activity (Western blotting)” value in the data set with mTORC1 [6] (DQ661 3 μM, Pepstatin A 10 μG/mL, Siramesine 8 μM) is on record as “potently inhibits mTORC1 activity”.
Take `CCN(CCO)CCCC(C)Nc1ccnc2cc(Cl)ccc12` (centres unmarked) [HCQ, hydroxychloroquine]: the “concentrations required to inhibit autophagy” value in the data set on autophagy is listed as “High micromolar concentrations”.
Turning to `Nc1ccn([C@@H]2O[C@H](CO)[C@@H](O)C2(F)F)c(=O)n1` [gemcitabine, reference compound], in the data set with G43 cells [7], the “sensitivity of G43 cells relative to parental 4664 cells” value is listed as “resistant to gemcitabine, relative to the parental treatment naïve 4664 cells”. The tumor growth entry with G43 cells [4] is “significantly impaired”.
